Test results: patent publication US4666886A, “Novel peptide derivatives” (Ciba-Geigy Corporation, priority 1983, dated 1987)
Square brackets hold non-standard residues; d marks the D form. Peptide text beside a SMILES is read from it. * marks the point of attachment. X2 = CCCCCCCCCCCC(=O)OC[C@H](C*)OC(=O)CCCCCCCCCCC; Palmitoyl = CCCCCCCCCCCCCCCC(=O)*

System: Alveolar rat macrophages
Assay: Activation of alveolar rat macrophages: specific cytotoxicity against 125I-marked tumour cells
Format: cell-based
Method: Alveolar rat macrophages are obtained by lung lavage, plated out and incubated in vitro from 24 hours either with liposomes that are charged with the active ingredient, or with the active ingredient in physiological salt solution (phosphate buffered saline, PBS), ^125 I-marked tumour cells are added and incubation is continued for a further 72 hours. Subsequently the dead tumour cells are washed away and the number of tumour cells still living is determined on the basis of their radioactivity. The macrophage activation is assessed on the basis of the cytotoxicity, that is to say according to the proportion of tumour cells dead at the end of the test. The specific cytotoxicity [%] is calculated as follows: [formula] Further details of the above-mentioned test method are described in I. J. Fidler et al., J. Biol. Response Modifiers 1, 43-55 (1982).

## CCCCCCCCCCCCCCCC(=O)N[C@@H](CSC[C@@H](COC(=O)CCCCCCCCCCC)OC(=O)CCCCCCCCCCC)C(=O)N[C@H](C)C(=O)N[C@@H](C)C(=O)N[C@H](CCC(=O)O)C(N)=O [R, palmitoyl-Cys(2[R], 3-dilauroyloxy-propyl)-D-Ala-Ala-D-Glu-NH2] (Palmitoyl-C(X2)[dA]A[dE]-NH2)
Active ingredient in 100 μg of liposomes per 0.2 ml, 0.02 μg/culture
  Specific cytotoxicity [%]: 20%
Active ingredient in 100 μg of liposomes per 0.2 ml, 0.2 μg/culture
  Specific cytotoxicity [%]: 18%
Active ingredient in 100 μg of liposomes per 0.2 ml, 2 μg/culture
  Specific cytotoxicity [%]: 86%
Active ingredient in 0.2 ml of PBS, 0.02 μg/culture
  Specific cytotoxicity [%]: 0%
Active ingredient in 0.2 ml of PBS, 0.2 μg/culture
  Specific cytotoxicity [%]: 84%
Active ingredient in 0.2 ml of PBS, 2 μg/culture
  Specific cytotoxicity [%]: 51%
